From patent US7462735B2, “Amino acid diamides in non α position which are useful as adjuvants for administration of biological active agents” (Laboratorios Farmaceuticos Rovi, S.A., priority 2003, dated 2008)

Experiments:
[1] = Intracolonic absorption of bemiparin in the rat, with or without adjuvant (plasma anti-Xa activity); format: in vivo; conditions: for effect on colonic absorption of bemiparin measured by plasma anti-Xa activity: adjuvant given with bemiparin, result in words; for anti-Xa activity/ml in plasma: 30 mg/kg bemiparin (+ 30 mg/kg adjuvant)
Description: The properties of the invention products have been investigated in an experimental model described below that consists of measuring the intracolonic absorption in the rat of a low-molecular-weight heparin, bemiparin, with a mean molecular mass of around 3,500 daltons and an anti-Xa activity of around 100 units/mg.
The activity of all compounds of the examples described above was studied in animals according to the following experimental model:
Evaluate the absorption of the test product when administered by intracolonic route to rats, whether or not in the presence of adjuvants. The plasma concentration is measured by assaying the Factor Xa-inhibition capacity. The rat is used because it is one of the species commonly used in this type of test.
One intracolonic administration.
25% (v/v) propylene glycol in bidistilled water. After dissolving the test product along with the adjuvant if applicable, adjust the pH to approximately 7.4 with NaOH.
The animals will be in fasted state for approximately 18 h with free access to water
The animals will be randomized to the various experimental groups, with one remaining animal as a reserve per group:
On the day of the test, the treatments will be administered by intracolonic route, following anaesthesia with ketamine. Administration will be done using a catheter of approximately 8 cm, connected to a 1-ml syringe. The catheter will be introduced in its entirety into the colon through the anus and the test product will be administered slowly into the colon.
Following the administration of the test product, within the times established in the table, a citrated blood sample (3.8% at a ratio of 1:9) will be drawn by intracardiac puncture under anaesthesia with ketamine.
Blood centrifugation: 3000 rpm, 10 minutes, 4° C. Plasma freezing (−20±5° C.) until determining the anti-Factor Xa activity.
A control group that will receive no treatment will be included, simply that one blood sample will be drawn per animal under the same conditions as the treatment group, with considered to be the baseline value of anti-Xa activity.
The anti-Xa activity will be assayed by the chromogenic method (anti-FXa activity assay kit).
The mean, the standard deviation […] and the standard error of the mean of each experimental group will be calculated for each parameter. If considered adequate, the values obtained in the different experimental groups will be compared by a statistical analysis.

Factor Xa = test: Anti-Xa activity of the heparin material (units/mg); format: biochemical; conditions: specific activity of the heparin material

Compound | melting point [°C] | other results
O=C(O)CCCNC(=O)c1ccc(NC(=O)c2ccccc2O)cc1 [Example 1, 4-[4-(hydroxybenzoylamino)benzoylamino]butanoic acid] | 211 to 213 | effect on colonic absorption of bemiparin measured by plasma anti-Xa activity [1]: no effect
O=C(O)CCCCCNC(=O)c1ccc(NC(=O)c2ccccc2O)cc1 [Example 2, 6-[4-(2-hydroxybenzoylamino)benzoylamino]hexanoic acid] | 201 to 203 | effect on colonic absorption of bemiparin measured by plasma anti-Xa activity [1]: no effect
O=C(O)CCCNC(=O)c1cccc(NC(=O)c2ccccc2O)c1 [Example 3, 4-[3-(2-hydroxybenzoylamino)benzoylamino]butanoic acid] | 172 to 174 | effect on colonic absorption of bemiparin measured by plasma anti-Xa activity [1]: no effect
O=C(O)CCCNC(=O)c1ccccc1NC(=O)c1ccccc1O [Example 4, 4-[2-(2-hydroxybenzoylamino)benzoylamino]butanoic acid] | 173 to 174 | effect on colonic absorption of bemiparin measured by plasma anti-Xa activity [1]: strong increase
O=C(O)CCCCNC(=O)c1ccccc1NC(=O)c1ccccc1O [Example 5, 5-[2-(2-hydroxybenzoylamino)benzoylamino]pentanoic acid] | 168 to 170 | –
O=C(O)CCCCCCCNC(=O)c1ccccc1NC(=O)c1ccccc1O [Example 6, 8-[2-(2-hydroxybenzoylamino)benzoylamino]octanoic acid] | 124 to 125 | –
O=C(O)CCCCCNC(=O)c1ccccc1NC(=O)c1ccccc1O [Example 7, 6-[2-(2-hydroxybenzoylamino)benzoylamino]hexanoic acid] | 165 to 167 | –
O=C(O)CCCNC(=O)c1ccccc1NC(=O)c1ccccc1[N+](=O)[O-] [Example 8, 4-[2-(2-nitrobenzoylamino)benzoylamino]butanoic acid] | 142 to 144 | –
O=C(O)CCNC(=O)c1ccccc1NC(=O)c1ccccc1O [Example 9, 3-[2-(2-hydroxybenzoylamino)benzoylamino]propanoic acid] | 200 to 202 | –
O=C(O)CCCNC(=O)c1ccccc1NC(=O)c1ccc([N+](=O)[O-])cc1O [Example 11, 4-[2-(2-hydroxy-4-nitrobenzoylamino)benzoylamino]butanoic acid] | 209 to 211 | effect on colonic absorption of bemiparin measured by plasma anti-Xa activity [1]: strong increase
O=C(O)CCCNC(=O)c1ccccc1NC(=O)c1cc([N+](=O)[O-])ccc1O [Example 12, 4-[2-(2-hydroxy-5-nitrobenzoylamino)benzoylamino]butanoic acid] | 239 to 241 | –
COc1ccc(C(=O)Nc2ccccc2C(=O)NCCCC(=O)O)c(O)c1 [Example 13, 4-[2-(2-hydroxy-4-methoxybenzoylamino)benzoylamino]butanoic acid] | 201 to 203 | –
COc1ccc(O)c(C(=O)Nc2ccccc2C(=O)NCCCC(=O)O)c1 [Example 14, 4-[2-(2-hydroxy-5-methoxybenzoylamino)benzoylamino]butanoic acid] | 191 to 193 | –
O=C(O)CCCNC(=O)c1ccccc1NC(=O)c1ccc([N+](=O)[O-])cc1 [Example 15, 4-[2-(4-nitrobenzoylamino)benzoylamino]butanoic acid] | 206 to 208 | –
COc1ccc(C(=O)Nc2ccccc2C(=O)NCCCC(=O)O)cc1 [Example 16, 4-[2-(4-methoxybenzoilamino)benzoilamino]butanoic acid] | 172 to 174 | –
O=C(O)CCCNC(=O)c1ccccc1NC(=O)c1ccc(Cl)cc1 [Example 17, 4-[2-(4-chlorobenzoylamino)benzoylamino]butanoic acid] | 182 to 184 | effect on colonic absorption of bemiparin measured by plasma anti-Xa activity [1]: strong increase
O=C(O)CCCNC(=O)c1ccccc1NC(=O)c1ccc(Cl)cc1O [Example 18, 4-[2-(4-chloro-2-hydroxybenzoylamino)benzoylamino]butanoic acid] | 205 to 206 | –
O=C(O)CCCNC(=O)c1ccccc1NC(=O)c1cc(Cl)ccc1O [Example 19, 4-[2-(5-chloro-2-hydroxybenzoylamino)benzoylamino]butanoic acid] | 222 to 223 | –
O=C(O)CCCNC(=O)c1ccccc1NC(=O)c1ccccc1Cl [Example 20, 4-[2-(2-chlorobenzoylamino)benzoylamino]butanoic acid] | 110 to 112 | –
O=C(O)CCCNC(=O)c1ccccc1NC(=O)c1ccccc1Br [Example 21, 4-[2-(2-bromobenzoylamino)benzoylamino]butanoic acid] | 117 to 118 | –
O=C(O)CCCNC(=O)c1ccccc1NC(=O)c1cccc(Cl)c1 [Example 22, 4-[2-(3-chlorobenzoylamino)benzoylamino]butanoic acid] | 165 to 166 | –
Bemiparin | – | anti-Xa activity (Factor Xa): around 100 units/mg; anti-Xa activity/ml in plasma ([1]; 0.5 h post-administration): 0.103; anti-Xa activity/ml in plasma ([1]; 2 h post-administration): 0.222; anti-Xa activity/ml in plasma ([1]; 4 h post-administration): 0.345
